Test results from patent publication US20210379094A1, “METHOD FOR REDUCING DRUG-INDUCED NEPHROTOXICITY” (Yissum Research Development Company of the Hebrew …, priority 2019, published 2021).
Several values for one entry are separate records, joined by “and”; a condition that tells them apart may be missing. Equal values may be shown once.

Assays:
Assay type in all cases: cell-based, human
HK-2 organoids [1] = assay: Real-time oxygen uptake / time to onset in perfused organoid bioreactor; conditions: for Oxygen uptake drop: after 33 hours continuous perfusion, 12.5 μM Cyclosporine A, 32 μM Cisplatin, 32 mM Gentamicin
Method: Polydimethylsiloxane (PDMS) microwell inserts were sterilized with 70% EtOH and 30-min exposure to UV light prior to cell seeding. Kidney cells were trypsinized, counted, and centrifuged at 300×g for 5 min at 4° C. […] Then, 1.35 μl of Matrigel® suspension containing cells and oxygen-sensing beads was seeded in each well using […] M P10M (Gilson, UK). The inoculated microwell insert was then incubated for 30 min at 37° C. to polymerize the gel. Following polymerization, the insert was immersed in 3 ml of cell culture medium and incubated overnight at 37° C. prior to being sealed in the bioreactor housing. Bioreactors were then placed in a climate control chamber on an IX81 fluorescence microscope (Olympus, Japan). Bioreactors were continuously perfused with cell culture medium noted above supplemented with 10 mM HEPES and 1% DMSO at a flow rate of 5 μL/min. Drug induction started upon metabolic stabilization. Stabilization was assessed by daily measurements of oxygen and metabolites.
Real-time oxygen measurements were performed optically using on-chip lifetime-based luminescence quenching (LBLQ). […] Oxygen acts as a quencher, leading to a decrease in decay time and signal intensity with increasing concentration. We chose to measure decay time, rather than signal intensity, as it is not sensitive to changes in probe concentration or excitation intensity over the course of the experiment. […] To accurately measure decay time, we chose phase modulation in which sinusoidal amplitude-modulated light is shifted in phase due to oxygen quenching. […] Measurements were carried out by averaging five consecutive 4-s exposures. Measurements were taken every 15 min.
Bioreactors were perfused with different concentrations of compounds dissolved in culture medium. […] TC50 concentrations were determined using MATLAB by sigmoidal curve fitting. […] Time to onset was analyzed by MATLAB based on LPF and trend assessment.

HK-2 organoids [2] = assay: Metabolic flux analysis (glucose, lactate, glutamine, oxygen) of perfused organoids; conditions: for ATP production drop / Lipogenesis increase / glycolysis drop: 31 hours exposure to sub-toxic concentration (12.5 μM Cyclosporine A, 32 μM Cisplatin, 32 mM Gentamicin)
Method: Amperometric glucose and lactate sensors were purchased from Innovative Sensor Technology (IST, Switzerland). […] Both sensors produce H2O2 in amounts proportional to the measured metabolite, which is detected with platinum electrodes under polarized condition. […] Measurements were carried out and calibrated to sensitivity decrease by on-chip potentiostat (IST, Switzerland). Glucose uptake, oxygen uptake, and lactate production rates were measured by calculating the change in metabolite concentration between the bioreactor in- and outflow as a function of perfusion rate and cell number. Metabolic rates were calculated assuming negligible contribution to oxygen uptake by fatty acid oxidation and enzymatic activity. […] Based on these assumptions, oxidative phosphorylation flux was calculated by dividing the oxygen uptake rate by six. It was estimated that 32 ATP molecules were generated by complete oxidation of one molecule of glucose. Glycolysis flux was calculated by dividing lactate production rate by two, with maximal rate defined by glucose uptake rate minus the oxidative phosphorylation flux. ATP production in glycolysis was estimated to be two molecules per molecule of glucose. It was assumed that any glucose left over was directed toward lipogenesis, because the contribution of pentose phosphate pathway in non-proliferating cells is minor. […] ATP production in glutaminolysis was estimated to be three molecules per molecule of lactate generated.

[3] = test system: HK-2 proximal tubule cells; assay: Glucose accumulation assay (2-NDBG); conditions: for 2-NBDG fluorescence: concentrations a thousand-fold under the threshold of cellular damage
Method: To monitor glucose uptake in cells, a fluorescent analog of glucose 2-(N-(7-Nitrobenz-2-oxa-1,3-diazol-4-yl) Amino)-2-Deoxyglucose (2-NDBG), (Invitrogen, CA, USA) was used. After overnight drug exposure, the medium was removed and replaced with Dulbecco's Phosphate Buffered Saline (Sigma, USA) with 17 mM and 6 mM of 2-NDBG to match glucose concentration of HK-2 and RPTEC culture medium respectively, incubated for 1 hour at 37° C., 5% CO2 before imaging. 2-NDBG is taken up in mammalian cells by GLUT-2, if its activity or shuttling is disturbed, 2-NDBG will accumulate in the cells, showing higher green intensity.

HK-2 [4] = assay: Reduction of toxicity (rescue) experiment with glucose transport inhibitors, lipid accumulation (LipidTox); conditions: for lipotoxicity: cultures treated with the three nephrotoxic compounds
Method: Quantification of lipid accumulation was performed using HCS LipidTOX™ Phospholipidosis and Steatosis Detection Kit (ThermoFisher). Briefly, HK-2 and RPTEC cells were incubated with different concentrations of compounds dissolved in culture medium and 1× Phospholipidosis Detection Reagent for 48 h, subsequently fixed in 4% PFA. Cells were then stained with 1× Green LipidTOX™ for neutral lipids for 45 min and counterstained with 1 μg/mL Hoechst 33258. Staining intensity was normalized to number of Hoechst 33258 positive nuclei.
(§1) Empagliflozin (5 μM) a potent SGLT2 inhibitor, phloretin (1 mM) inhibits the apicobasal shuttling of the GLUT2, phlorizin (200 μM) is a mild inhibitor of SGLT1 and SGLT2. When all three inhibitors were used together, the mix was referred to as a cocktail. All experiments were performed on a 96 well plate, in triplicates with controls with no drugs, or inhibitors alone. First, cells were incubated for 1 hour with inhibitors alone and then drugs were added with inhibitors for 24 hours for LIVE DEAD assay or 48 hours for Lipid accumulation (LipidTox Assay). Cell viability was determined using LIVE/DEAD Cytotoxicity kit (Molecular Probes, USA) according to manufacturer directions. Briefly, cultures were incubated for 30 min with 2 μM calcein AM and 4 μM ethidium homodimer-1. Live cells were positive for green fluorescence due to hydrolysis of the acetoxymethyl ester group by intracellular esterases. Dead cells were positive for red fluorescence due to ethidium homodimer-1 binding intracellular DNA, possible in […]. Cellular viability was expressed as live over dead ratio and normalized based on negative (DMSO/DDW/PBS) controls. Fluorescence micrographs were analyzed for total fluorescence using ImageJ for 9 repeats for each sample. Error bars indicate ±SEM.
(§2) After staining, plates were mounted on the fluorescent microscope for quantification. Rescue was achieved when significant percentage of live cells and/or a reduced amounts of dead cells was observed as compared with cells treated with the drug only.

HK-2 [5] = assay: Reduction of toxicity (rescue) experiment with glucose transport inhibitors, LIVE/DEAD viability; conditions: for cell viability / cell death: cultures treated with nephrotoxic drug plus inhibitor vs drug alone
Method: as §1, §2

[6] = organoids under continuous perfusion

Gentamicin
Oxygen uptake drop (HK-2 organoids [1]): 10%
oxygen response upon perfusion (HK-2 organoids [1]; [6]): acute jump in oxygen uptake within an hour after exposure
viability at sub-toxic concentration (HK-2 organoids [1]; sub-toxic concentration used for flux analysis): > 95%
lactate over glucose ratio drop (HK-2 organoids [2]; 32 mM Gentamicin, after 10 h exposure): 85%
ATP production drop (HK-2 organoids [2]): 29%
Lipogenesis increase (HK-2 organoids [2]): 438%
glycolysis drop (HK-2 organoids [2]): 65%
glucose uptake increase (HK-2 organoids [2]; after 31 hours): +196%
lactate release decrease (HK-2 organoids [2]; after 31 hours): −65.2%
Glutamine uptake change (HK-2 organoids [2]; at 31 hours): +14.1%
Glutamine uptake change (HK-2 organoids [2]; at approximately 16 hours): +76%
shift of organoid metabolism (HK-2 organoids [2]; bioreactor studies): significantly shift proximal tubular organoid metabolism towards lipogenesis
Relative 2-NDBG accumulation, increase in glucose content ([3]; HK2 cells, sub-toxic 15 h exposure): 2 fold
2-NBDG fluorescence [3]: doubles

OC[C@H]1O[C@@H](c2ccc(Cl)c(Cc3ccc(O[C@H]4CCOC4)cc3)c2)[C@H](O)[C@@H](O)[C@@H]1O [Empagliflozin]
lipotoxicity (HK-2 [4]): significantly alleviates lipotoxicity
cell viability / cell death (HK-2 [5]): restores cell viability

O=C(CCc1ccc(O)cc1)c1c(O)cc(O)cc1O[C@@H]1O[C@H](CO)[C@@H](O)[C@H](O)[C@H]1O [Phlorizin]
decrease in phospholipids content (HK-2 [4]; CsA treated cultures, compared to CsA alone): 2 fold
lipotoxicity (HK-2 [4]): significantly alleviates lipotoxicity
increase in cell viability (HK-2 [5]; CsA treated cultures, compared to cells treated with CsA alone): 2 fold
cell viability / cell death (HK-2 [5]): restores cell viability

N.N.[Cl][Pt][Cl] [Cisplatin]
Time to onset (TTO) of response (HK-2 organoids [1]; HK-2 organoids, increasing concentrations, dose-dependent decrease): 13 to 22 h
Oxygen uptake drop (HK-2 organoids [1]): 36%
time of induced damage following exposure (HK-2 organoids [1]; [6]): at least 14 hours
ATP production drop (HK-2 organoids [2]): 53%
Lipogenesis increase (HK-2 organoids [2]): 57.6% and 57%
glycolysis drop (HK-2 organoids [2]): 98.4% and 98%
Overall glutamine uptake (HK-2 organoids [2]; during exposure): remained constant
2-NBDG fluorescence [3]: doubles

O=C(CCc1ccc(O)cc1)c1c(O)cc(O)cc1O [Phloretin]
lipotoxicity (HK-2 [4]): significantly alleviates lipotoxicity
cell viability / cell death (HK-2 [5]): restores cell viability
